# In patent US20250353857A1, “COMPOUND ACTIVE AS INHIBITOR OF COLONY STIMULATION FACTOR-1 RECEPTOR (CSF-1 R)” (priority 2022, published 2025):
# Like-named read-outs stand apart in the source and are kept apart here.
# How the values were obtained:
# [1] = test system: P-MAPK (ERK1/2) in CSF-1 stimulated bone-marrow derived macrophages; experiment: Effect of CSF1R inhibitors on MAPK signaling in mouse bone-marrow derived macrophages; type: cell-based; settings: fold change relative to PLX3397 (IC50 inhibitor/IC50 PLX3397), P-MAPK/total MAPK, 10 ng/mL CSF-1
# [2] = biological target: CSF1R (Homo sapiens (Human), UniProt P07333); experiment: CSF1R enzymatic inhibitory assay (Invitrogen Z'-LYTE, FRET); type: biochemical;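 also: kinase phosphorylates a tyrosine on a coumarin/fluorescein FRET peptide, a protease cuts peptide left unphosphorylated, inhibition quantified from the donor-to-acceptor emission ratio with excitation at 400 nm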
# Chain of CSF1R (P07333 20-972): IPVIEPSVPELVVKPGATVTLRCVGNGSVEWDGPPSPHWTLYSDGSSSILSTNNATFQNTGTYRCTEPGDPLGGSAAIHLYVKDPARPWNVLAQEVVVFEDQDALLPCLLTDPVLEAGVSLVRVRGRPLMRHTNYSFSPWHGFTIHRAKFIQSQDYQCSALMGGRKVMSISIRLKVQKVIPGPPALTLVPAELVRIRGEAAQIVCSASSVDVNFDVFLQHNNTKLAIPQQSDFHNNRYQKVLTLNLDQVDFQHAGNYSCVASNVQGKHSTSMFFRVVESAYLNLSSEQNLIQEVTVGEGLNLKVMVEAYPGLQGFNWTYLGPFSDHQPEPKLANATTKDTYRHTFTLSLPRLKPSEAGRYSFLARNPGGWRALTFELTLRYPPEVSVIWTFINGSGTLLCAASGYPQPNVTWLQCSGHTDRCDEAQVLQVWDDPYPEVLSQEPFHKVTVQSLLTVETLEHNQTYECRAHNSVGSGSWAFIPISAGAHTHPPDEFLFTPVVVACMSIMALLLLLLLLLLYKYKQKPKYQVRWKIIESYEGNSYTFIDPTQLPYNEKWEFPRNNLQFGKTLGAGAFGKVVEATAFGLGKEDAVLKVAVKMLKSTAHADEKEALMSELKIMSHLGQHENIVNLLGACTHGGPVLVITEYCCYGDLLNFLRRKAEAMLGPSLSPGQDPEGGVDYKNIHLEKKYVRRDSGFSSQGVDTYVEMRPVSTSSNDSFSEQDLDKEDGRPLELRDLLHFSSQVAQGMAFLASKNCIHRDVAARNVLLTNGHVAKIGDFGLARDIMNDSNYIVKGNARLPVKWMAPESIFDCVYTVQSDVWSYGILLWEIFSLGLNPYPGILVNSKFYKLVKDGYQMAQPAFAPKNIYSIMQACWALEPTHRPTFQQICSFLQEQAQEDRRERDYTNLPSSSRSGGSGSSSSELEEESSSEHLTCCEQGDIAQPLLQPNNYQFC
# [3] = Z'-LYTE assay, ATP concentration equal to Km, average of at least 2 titration curves, read-out: CSF1R (IC50)
SMILES,"IC50 [2, 3] [nM]",MAPK (fold) [1] [fold],IC50 [2] [nM]
"COc1cccc(CN(C)c2ncnc3[nH]c(-c4ccc(CCC(=O)O)cc4)cc23)c1 [FAB01-23, 3-(4-(4-((3-Methoxybenzyl)(methyl)amino)-7H-pyrrolo[2,3-d]pyrimidin-6-yl)phenyl)propanoic acid]",–,>5,0.2
"COc1ccc(CN(C)c2ncnc3[nH]c(-c4ccc(CCC(=O)O)cc4)cc23)cc1OC [FAB 01-24, 3-(4-(4-((3,4-Dimethoxybenzyl)(methyl)amino)-7H-pyrrolo[2,3-d]pyrimidin-6-yl)phenyl)propanoic acid]",0.6,>5,–
"Cc1cccc(CN(C)c2ncnc3[nH]c(-c4ccc(C5CCCC(=O)O5)cc4)cc23)c1 (stereo not drawn) [LR-1-124, 6-(4-(4-(Methyl(3-methylbenzyl)amino)-7H-pyrrolo[2,3-d]pyrimidin6-yl)phenyl)tetrahydro-2H-pyran-2-one]",0.8 ± 0.1,2.1,–
"CN(Cc1ccc(F)cc1)c1ncnc2[nH]c(-c3ccc(CO)cc3)nc12 [TIA02-134, N-Methyl-N-(4-fluorobenzyl)-8-(4-(hydroxymethyl)phenyl)-9H-purin-6-amine]",8.8 ± 0.3,>3,–
"CN(Cc1cccnc1)c1ncnc2[nH]c(-c3ccc(CO)cc3)nc12 [TIA02-166, N-Methyl-N-(pyridin-3-ylmethyl)-8-(4-(hydroxymethyl)phenyl)-9H-purin-6-amine]",2.1 ± 0.4,>3,–
"OCc1ccc(-c2nc3c(N4CCCC4c4ccccc4)ncnc3[nH]2)cc1 (stereo not drawn) [TIA02-176, 8-(4-(Hydroxymethyl)phenyl)-6-(2-phenylpyrrolidin-1-yl)-9H-purine]",1.9 ± 0.2,>3,–
"COc1ccccc1CN(C)c1ncnc2[nH]c(-c3ccc(CO)cc3)nc12 [TIA03-106, N-(2-Methoxybenzyl)-N-methyl-8-(4-(hydroxymethyl)phenyl)-9H-purin-6-amine]",4.2 ± 1.4,>3,–
"CN1CCCC(CN(C)c2ncnc3[nH]c(-c4ccc(CO)cc4)nc23)C1 (stereo not drawn) [TIA04-063, N-Methyl-N-(1-methylpiperidin-3-ylmethyl)-8-(4-(hydroxymethyl)phenyl)-9H-purin-6-amine]",53 ± 4,>3,–
CC(C)C1CCCN1c1ncnc2[nH]c(-c3ccc(CO)cc3)nc12 (stereo not drawn) [TIA04-065],5.4 ± 2.4,>3,–
"CN(CC1CCCO1)c1ncnc2[nH]c(-c3ccc(CO)cc3)nc12 (stereo not drawn) [TIA04-093, N-Methyl-N-(tetrahydrofuran-2-ylmethyl)-8-(4-(hydroxymethyl)phenyl)-9H-purin-6-amine]",2.6 ± 0.3,>3,–
"CN(CC1CCCCO1)c1ncnc2[nH]c(-c3ccc(CO)cc3)nc12 (stereo not drawn) [TIA04-095, N-Methyl-N-(oxan-2-ylmethyl)-8-(4-(hydroxymethyl)phenyl)-9H-purin-6-amine]",1.3 ± 0.2,>3,–
"CN(Cc1ccccc1)c1ncnc2[nH]c(N3CCOCC3)nc12 [TIA04-105, N-Benzyl-N-methyl-8-morpholino-9H-purin-6-amine]",16 ± 4,>3,–
"CN(CC1CCCCC1)c1ncnc2[nH]c(-c3ccc(CO)cc3)cc12 [TIA05-090, (4-(4-((Cyclohexylmethyl)(methyl)amino)-7H-pyrrolo[2,3-d]pyrimidin-6-yl)phenyl)methanol]",0.3,1.0,–

# Continued by falling IC50 [2, 3], values first:
"IC50 [2, 3] [nM]",SMILES,MAPK (fold) [1] [fold],IC50 [2] [nM]
4.6 ± 0.6,"CN(CC1CCOC1)c1ncnc2[nH]c(-c3ccc(CO)cc3)nc12 (stereo not drawn) [TIA04-049, N-Methyl-N-(tetrahydrofuran-3-ylmethyl)-8-(4-(hydroxymethyl)phenyl)-9H-purin-6-amine]",>3,–
2.3 ± 0.3,"CN(Cc1ccccc1O)c1ncnc2[nH]c(-c3ccc(CO)cc3)nc12 [TIA04-009, N-Methyl-N-(2-hydroxybenzyl)-8-(4-(hydroxymethyl)phenyl)-9H-purin-6-amine]",>3,–
2.2,"CN(Cc1cccnc1)c1ncnc2[nH]c(-c3ccccc3)nc12 [TIA109, N-Methyl-8-phenyl-N-(pyridin-3-ylmethyl)-9H-purin-6-amine]",–,–
1.5 ± 0.2,"Cc1cccc(CN(C)c2ncnc3[nH]c(-c4ccc(CO)cc4)nc23)c1 [TIA02-172, N-Methyl-N-(3-methylbenzyl)-8-(4-(hydroxymethyl)phenyl)-9H-purin-6-amine]",>5,–
1.2 ± 0.2,"CN(Cc1ccccc1)c1ncnc2[nH]c(-c3ccccc3CO)nc12 [JKS02-027, (2-(6-(Benzyl(methyl)amino)-9H-purin-8-yl)phenyl)methanol]",>3,–
1.2 ± 0.2,"CN(CC1CCCCC1)c1ncnc2[nH]c(-c3ccc(CN4CCOCC4)cc3)nc12 [TIA04-117, N-(Cyclohexylmethyl)-N-methyl-8-(4-(4-morpholinomethyl)phenyl)-9H-purin-6-amine]",1.2,–
0.7,"CN(CC1CCCCC1)c1ncnc2[nH]c(-c3ccc(CO)cc3)nc12 [TIA03-024, N-Methyl-N-(cyclohexylmethyl)-8-(4-(hydroxymethyl)phenyl)-9H-purin-6-amine]",0.9,–
0.3 ± 0.2,"CN(CC1CCCC1)c1ncnc2[nH]c(-c3ccc(CO)cc3)nc12 [TIA03-188, N-Methyl-N-(cyclopentylmethyl)-8-(4-(hydroxymethyl)phenyl)-9H-purin-6-amine]",0.6,–
0.3,"CN(CC1CCOCC1)c1ncnc2[nH]c(-c3ccc(CO)cc3)nc12 [TIA04-051, N-Methyl-N-(oxan-4-ylmethyl)-8-(4-(hydroxymethyl)phenyl)-9H-purin-6-amine]",1,–
0.2,"CN(CC1CCOCC1)c1ncnc2[nH]c(-c3ccc(CCO)cc3)nc12 [TIA05-014, N-Methyl-N-(oxan-4-ylmethyl)-8-(4-(2-hydroxyethyl)phenyl)-9H-purin-6-amine]",1.7,–
